# Laboratory results published in patent US20230346948A1, “Lipid conjugated peptide inhibitors of PICK1” (University of Copenhagen, priority 2020, published 2023).
# Where two headings read alike, the source gives them in different places.
# Assays:
# [1] = Small angle X-ray scattering, self-assembly in solution; format: physicochemical
# Description: Concentration series of […] ranging from 0.18 mg/ml to 9.37 mg/mL was prepared in buffer containing 50 mM Tris (pH 7.4), 125 mM NaCl. Samples were measured at the P12 SAXS Beamline, […], Hamburg, Germany. Preliminary data reduction including radial averaging and conversion of the data into absolute scaled scattering intensity, I(q), as a function of the scattering vector q, where q=4π sin(θ)/λ ([…]=half scattering angle) were done using the standard procedures at the beamline. The modelling of the SAXS data was performed in two ways, firstly using the pair distance distribution function and subsequently using a molecular constrained core-shell model for polydisperse spheres. In brief, it was assumed that the peptide aggregated into polydisperse spherical micelles. Here, the hydrophobic tails form the core and these are surrounded by the hydrophilic part (the shell) in a spherical micelle. […] This was calculated by counting the number of electrons in the molecular structure and multiplying by the scattering length of the electron. For the scattering length density calculations, it was assumed that the molecular volume of the C13 alkyl chain was 377 Å3 as estimated from Tanfords empirical formula (V=27.4+26.9nC) where nC denote the number of carbons. i.e. 13 in this case. The hydrophilic headgroup was as a first estimate assumed to have a mass density corresponding to that of a soluble protein (i.e. 1.35 g/cm^3), this yielded a molecular volume of 2078 Å3. […] Excess scattering length densities were then calculated in relation to water (9.4e101/cm^2). Using this molecular restrained model, the volumes of the core and of the shell were coupled internally through the fitted aggregation number, Nagg. The polydispersity was described by a Gauss function of Nagg. The Gauss was truncated at ±3sigma. The model module “[…]” from the […] software was used for the fitting. As usual a small surface roughness and a small constant background was also necessary for the model to converge. Scattering data was merged; buffer subtracted and binned using WillItRebin with a binning factor of 1.02. The pair distance distribution functions (pddf) were fitted using bayesapp (http://www.bayesapp.org/) in the interval [0.0122-0.4] Å^-1, fitting parameters are reported in the data collection table below.
# [2] = system: diabetic neuropathy (STZ model); details: for maximum reversal of mechanical response threshold: 2 h post-administration
# Description: Diabetic neuropathy (STZ) model. Diabetes is induced by a single IP injection of […]. Streptozocin solution (100 μl/10 g, Sigma-aldrich S0130, batch #WXBB7152V). Glycemia is tested before, and 7 days after injection.
# The mechanical threshold response of the operated mice was measured with calibrated von Frey filaments (“up/down” method) and the 50% threshold (g) was calculated. The experimenter was blinded to mice treatment. […] Compounds were diluted in PBS (vehicle) and administered s.c. at 10 μL/g, in doses as indicated (gabapentine, 5MPK). Statistical analysis was performed using GraphPad Prism 6.0.
# [3] = system: thermal hypersensitivity (CFA model); assay: Hargreaves test, thermal hypersensitivity in CFA model; format: in vivo, mice; details: s.c. 10 μmol/kg
# Description: Inflammatory pain (CFA model): Animals were habituated to the experimental room for a minimum of 60 min before initiation of the experiment. Hargreave's test was performed by application of radiant heat light to the plantar surface of both hindpaw. The response latency was measured by an automated readout (Ugo Basile, Italy). The baseline paw withdrawal latency of both hind paws in response to radiant heat stimulation was performed before CFA injection, and no difference between the two pre-selected groups was found. The inflammatory pain was induced by […] of 50 μL undiluted Complete Freund's Adjuvant (CFA) ([…], Sigma) unilaterally into the intraplantar surface of the right hind paw, whereas control mice were injected with the same amount of 0.9% saline (B. Braun, Germany). All intraplantar injections were performed with and insulin needle (0.3 mL BD Micro-Fine) while the animal was under isoflurane anesthesia (2%) for maximum 60 seconds. On day 3 after CFA injection, mice were placed in individual red cylinders (8 cm in diameter, 7.5 cm tall) and thermal hyperalgesia was confirmed by a baseline reading with IR of 20. Three measurements were performed on each hindpaw of each mouse. A positive trial was defined as sudden paw withdrawal, flinching and/or paw licking induced by the infrared light. Measurements were performed before CFA injection, and at 3+4 days after CFA injection. At day 3, the measurements were performed before treatment, as well as 1, 5 and 21 hours after treatment. Peptide and vehicle were administered s.c. (10 μL/g)), and at a concentration of 0 or 10 μmol/kg. Statistical analysis was performed using GraphPad Prism 6.0. Two-way RM ANOVA followed by Bonferroni's post-hoc test. Significance level set to p<0.05.
# [4] = system: neuropathic pain (SNI model); assay: Spared Nerve Injury (SNI) model of neuropathic pain, von Frey; format: in vivo, mice; details: for relief of evoked pain (paw withdrawal threshold): day 7 after SNI, tested 1-6 h
# Description: Neuropathic pain. The SNI pain experiment was performed by Phenotype Expertise-Pain and CNS behaviour CRO under supervision of […]). Study was performed on 8 weeks old […] male mice (Charles River). The spared nerve injury surgery was performed on anaesthetized mice. Ligature and transection of the common peroneal and tibial distal branches of the sciatic nerve was performed, leaving the sural branch intact. […] The experimenter was blinded to mice treatment. […] All the compounds were diluted in PBS and administered s.c. at 10 μL/g. Statistical analysis was performed using GraphPad Prism 6.0. Two-way RM ANOVA followed by Bonferroni's post-hoc test. Significance level set to p<0.05. Neuropathic pain. Study was performed on 8 weeks old […] male mice (Charles River). The spared nerve injury surgery was performed on anaesthetized mice. Ligature and transection of the common peroneal and tibial distal branches of the sciatic nerve was performed, leaving the sural branch intact. […] The experimenter was blinded to mice treatment. […] All the compounds were diluted in PBS and administered 10 μmol/kg (10 μL/gram) […]. at 10 μL/g. Statistical analysis was performed using GraphPad Prism 6.0. Two-way RM ANOVA followed by Bonferroni's post-hoc test. Significance level set to p<0.05. Neuropathic pain. Study was performed on 8 weeks old […] male mice (Charles River). The spared nerve injury surgery was performed on anaesthetized mice. Ligature and transection of the common peroneal and tibial distal branches of the sciatic nerve was performed, leaving the sural branch intact. […] The mice were testes in von Frey monthly and the hyperalgesic response at 52 weeks was sustained. […] The experimenter was blinded to mice treatment. After injection, mechanical threshold was measured, 2 and 5 hrs. All the compounds were diluted in PBS and administered s.c. at 10 μL/g, 30 μmol/kg. Statistical analysis was performed using GraphPad Prism 6.0.
# [5] = pair distance distribution function analysis
structure (smiles),measurement,setting,value
CCCCCCCCCCCCCC(=O)N(CCOCCOCCC(=O)N[C@@H](Cc1c[nH]cn1)C(=O)N[C@@H](Cc1c[nH]c2ccccc12)C(=O)N[C@@H](CC(C)C)C(=O)N[C@@H](CCCCN)C(=O)N[C@H](C(=O)O)C(C)C)CCOCCOCCC(=O)N[C@@H](Cc1c[nH]cn1)C(=O)N[C@@H](Cc1c[nH]c2ccccc12)C(=O)N[C@@H](CC(C)C)C(=O)N[C@@H](CCCCN)C(=O)N[C@H](C(=O)O)C(C)C [myr-NPEG4-(HWLKV)2],"n myr-NPEG4-(HWLKV)2, core shell model",[1]; 300 μM,19
same,"n myr-NPEG4-(HWLKV)2, core shell model",[1]; 400 μM,22
same,"n myr-NPEG4-(HWLKV)2, core shell model",[1]; 1000 μM,22
same,"n myr-NPEG4-(HWLKV)2, core shell model",[1]; 3000 μM,21
same,"n myr-NPEG4-(HWLKV)2, core shell model",[1]; 5000 μM,19
same,number of individual molecules per micelle,[1]; core-shell model,19-22
same,outer radius of spherical core-shell micelle,[1]; core-shell model,20-24 Å
same,number of individual molecules per assembly,[1]; [5],5-8
same,radius of gyration (Rg) of micellar structures,[1]; [5],20-23.6 Å
same,analgesic effect,[2]; s.c. 2 μmol/kg,weaker effect
same,maximum reversal of mechanical response threshold,[2]; s.c. 2 μmol/kg,49.2±7.9 % of baseline
same,analgesic effect,[2]; s.c. 10 μmol/kg,strong and long-lasting effect up to 4 h
same,maximum reversal of mechanical response threshold,[2]; s.c. 10 μmol/kg,67.3±4.5 % of baseline
same,"pain relief (paw withdrawal latency), sensitized paw",[3]; 5 hours,less pronounced
same,"paw withdrawal latency, contralateral (healthy) paw",[3]; day 3 after CFA,no significant changes
same,"paw withdrawal latency, sensitized (ipsilateral) paw",[3]; day 3 after CFA,highly significant increase in paw withdrawal latency
same,"pain relief (paw withdrawal latency), sensitized paw",[3]; following day (21 h),fully dissolved
same,paw withdrawal threshold of uninjured contralateral paw,"[4]; SNI model, Example 8",remained unaltered
same,relief of evoked pain (paw withdrawal threshold),[4]; s.c. 2 μmol/kg,no significant pain relief
same,relief of evoked pain (paw withdrawal threshold),[4]; s.c. 10 μmol/kg,significant pain relief up to 3 hours post injection
same,"relief of evoked pain (paw withdrawal threshold), chronic pain","[4]; s.c. 30 μmol/kg, 52 weeks after SNI, tested 2 and 5 h",highly significant effect of the treatment at 5 hrs
